The record followed here is patent US20240408169A1 (priority 2023, published 2024).

*1 amine or outer side, *2 acyl side, *3 side chain or, on linkers, in order; H or OH if unused. Where a SMILES comes first, the peptide text is derived from it. Bridges are numbered along the chain shown (N, C = ends). [ ]: non-standard residue; d: D form. The star is where a group is joined. X146 = CC(C)C(=O)N1[C@@H]2CC[C@H]1C=C(c1ccc(Cl)cc1C[C@@H](C(=O)[*:2])N(C)[*:1])C2; X124 = CC(C)C(=O)N1[C@@H]2CC[C@H]1C=C(c1ccc(F)cc1C[C@@H](C(=O)[*:2])N(C)[*:1])C2; X7 = CC(C)C(=O)N1[C@H]2CC[C@@H]1C=C(c1ccc(F)cc1C[C@@H](C(=O)[*:2])N(C)[*:1])C2; X196 = CN([C@@H](Cc1cc(F)ccc1-c1cnn2ccncc12)C(=O)[*:2])[*:1]; NMehhhLys(Me) = CN([C@@H](CCCCCCCN(C)[*:3])C(=O)[*:2])[*:1]; NMe(hhhLys) = CN([C@@H](CCCCCCCN[*:3])C(=O)[*:2])[*:1]; X152 = CN([C@@H](Cc1cc(Cl)ccc1OC1CC1)C(=O)[*:2])[*:1]; cBuCO(3,3-F2-1-CF3) = O=C(C1(C(F)(F)F)CC(F)(F)C1)*; Pro(trans-4-F) = O=C(O)[C@@H]1C[C@@H](F)CN1; Gly(cPr) = N[C@H](C(=O)O)C1CC1

One experiment concerns the target T1, CyclinB1/CDK1 (Homo sapiens, UniProt P14635).
T1 construct: purchased Eurofins, discovery 14-450
In words: Fluorescence Polarization (FP) competitive binding assay, Cyclin B1/Cdk1.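 Also: fluorescence polarization read after equilibration at room temperature, with IC50 taken from serially diluted dose-response curves.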 To be noted: 10 nM Cyclin B1/Cdk1, 2 nM FAM probe; average of 2-3 independent experiments; read-out: Cyclin B FP IC50.

Another experiment deals with OVCAR3 cells. Briefly: MTT proliferation assay, OVCAR3.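 Also: compound given as an 8- or 10-point series, one day after plating, with exposure covering roughly 3-4 cell doublings.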 Type of experiment: cell-based. To be noted: 5 days compound exposure, 1:3 serial dilution starting at 10 μM.
In a further experiment the test system is NCI-H1048 cells. Briefly: MTT proliferation assay, NCI-H1048.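 Also: Dose-response in 96-well plates over 8 or 10 concentration points, with exposure spanning 3-4 cell doublings.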 Type of experiment: cell-based. The conditions noted are these: 5 days compound exposure, 1:3 serial dilution starting at 10 μM.
A further experiment deals with T2, CyclinA2/CDK2 (Homo sapiens, UniProt P20248).
T2 construct: purchased CRELUX Protein Services
In words: Fluorescence Polarization (FP) competitive binding assay, Cyclin A2/Cdk2.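 Also: plates equilibrated two hours at room temperature before polarization reading, IC50 fitted from eight-concentration compound titration curves.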 The conditions noted are these: 8 nM Cyclin A2/Cdk2, 2 nM FAM probe; average of 2-3 independent experiments; read-out: Cyclin A FP IC50.

The target of a further experiment is T3, CyclinE1/CDK2 (Homo sapiens, UniProt P24864).
T3 construct: purchased Eurofins, discovery 14-475
In words: Fluorescence Polarization (FP) competitive binding assay, Cyclin E1/Cdk2.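 Also: readings taken after two-hour equilibration at room temperature in HEPES buffer with NaCl, DTT, NP-40 and BSA, IC50 fitted from eight-concentration serial dilution series.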 To be noted: 10 nM Cyclin E1/Cdk2, 2 nM FAM probe; average of 2-3 independent experiments; read-out: Cyclin E FP IC50.

In the case of `CC(C)C[C@@H]1NC(=O)[C@@H](N(C)C(=O)[C@@H](NC(=O)[C@@H]2C[C@@H](F)CN2C(=O)C2(C(F)(F)F)CC(F)(F)C2)C2CC2)CCCCCCCN(C)C(=O)[C@H](Cc2cc(F)ccc2-c2cnn3ccncc23)N(C)C1=O` [Example 310] ({cBuCO(3,3-F2-1-CF3)}-[Pro(trans-4-F)][Gly(cPr)][NMehhhLys(Me)]L[X196]; lactam 3-C), the IC50 came to 20 nM on CyclinB1/CDK1, 80 nM on CyclinA2/CDK2 and 990 nM on CyclinE1/CDK2. Moreover, the GI50 in the experiment on OVCAR3 cells and in the experiment with NCI-H1048 cells was 10 nM each time.
In the case of `CC(C)C[C@@H]1NC(=O)[C@@H](N(C)C(=O)[C@@H](NC(=O)[C@@H]2C[C@@H](F)CN2C(=O)C2(C(F)(F)F)CC(F)(F)C2)C2CC2)CCCCCCCNC(=O)[C@H](Cc2cc(Cl)ccc2OC2CC2)N(C)C1=O` [Example 311] ({cBuCO(3,3-F2-1-CF3)}-[Pro(trans-4-F)][Gly(cPr)][NMe(hhhLys)]L[X152]; lactam 3-C), the IC50 came to 20 nM on CyclinB1/CDK1, 50 nM on CyclinA2/CDK2 and 200 nM at CyclinE1/CDK2. The GI50 in the experiment with OVCAR3 cells came out at 30 nM; in the experiment with NCI-H1048 cells it was 20 nM.
Turning to `CC(C)C[C@@H]1NC(=O)[C@@H](N(C)C(=O)[C@@H](NC(=O)[C@@H]2C[C@@H](F)CN2C(=O)C2(C(F)(F)F)CC(F)(F)C2)C2CC2)CCCCCCCNC(=O)[C@H](Cc2cc(Cl)ccc2C2=C[C@@H]3CC[C@H](C2)N3C(=O)C(C)C)N(C)C1=O` [Example 312] ({cBuCO(3,3-F2-1-CF3)}-[Pro(trans-4-F)][Gly(cPr)][NMe(hhhLys)]L[X146]; lactam 3-C), the IC50 on CyclinB1/CDK1 was 20 nM; on CyclinA2/CDK2, 20 nM; on CyclinE1/CDK2, 740 nM. For the same molecule, the GI50 stood at 30 nM with OVCAR3 cells and 20 nM in the experiment on NCI-H1048 cells.
Regarding `CC(C)C[C@@H]1NC(=O)[C@@H](N(C)C(=O)[C@@H](NC(=O)[C@@H]2C[C@@H](F)CN2C(=O)C2(C(F)(F)F)CC(F)(F)C2)C2CC2)CCCCCCCN(C)C(=O)[C@H](Cc2cc(Cl)ccc2OC2CC2)N(C)C1=O` [Example 314] ({cBuCO(3,3-F2-1-CF3)}-[Pro(trans-4-F)][Gly(cPr)][NMehhhLys(Me)]L[X152]; lactam 3-C), the half-maximal inhibitory concentration (IC50) on CyclinB1/CDK1 stood at 20 nM; at CyclinA2/CDK2 it was 30 nM; at CyclinE1/CDK2, 140 nM. For the same molecule, the GI50 with OVCAR3 cells and with NCI-H1048 cells was 10 nM in each case.
Regarding `CC(C)C[C@@H]1NC(=O)[C@@H](N(C)C(=O)[C@@H](NC(=O)[C@@H]2C[C@@H](F)CN2C(=O)C2(C(F)(F)F)CC(F)(F)C2)C2CC2)CCCCCCCNC(=O)[C@H](Cc2cc(F)ccc2C2=C[C@@H]3CC[C@H](C2)N3C(=O)C(C)C)N(C)C1=O` [Example 315] ({cBuCO(3,3-F2-1-CF3)}-[Pro(trans-4-F)][Gly(cPr)][NMe(hhhLys)]L[X124]; lactam 3-C), the IC50 was found to be 20 nM at CyclinB1/CDK1, 30 nM on CyclinA2/CDK2 and 420 nM on CyclinE1/CDK2. Moreover, the GI50 in the experiment with OVCAR3 cells and in the experiment on NCI-H1048 cells was 20 nM throughout.
On to `CC(C)C[C@@H]1NC(=O)[C@@H](N(C)C(=O)[C@@H](NC(=O)[C@@H]2C[C@@H](F)CN2C(=O)C2(C(F)(F)F)CC(F)(F)C2)C2CC2)CCCCCCCNC(=O)[C@H](Cc2cc(F)ccc2C2=C[C@H]3CC[C@@H](C2)N3C(=O)C(C)C)N(C)C1=O` [Example 316] ({cBuCO(3,3-F2-1-CF3)}-[Pro(trans-4-F)][Gly(cPr)][NMe(hhhLys)]L[X7]; lactam 3-C), for which the results for the IC50 on CyclinB1/CDK1, at CyclinA2/CDK2 and on CyclinE1/CDK2 were 20 nM, 20 nM and 290 nM, respectively. In addition, the GI50 in the experiment with OVCAR3 cells and in the experiment on NCI-H1048 cells was 10 nM each time.
In the case of `CC(C)C[C@@H]1NC(=O)[C@@H](N(C)C(=O)[C@@H](NC(=O)[C@@H]2C[C@@H](F)CN2C(=O)C2(C(F)(F)F)CC(F)(F)C2)C2CC2)CCCCCCCN(C)C(=O)[C@H](Cc2cc(F)ccc2C2=C[C@@H]3CC[C@H](C2)N3C(=O)C(C)C)N(C)C1=O` [Example 317] ({cBuCO(3,3-F2-1-CF3)}-[Pro(trans-4-F)][Gly(cPr)][NMehhhLys(Me)]L[X124]; lactam 3-C), the half-inhibitory concentration (IC50) worked out at 20 nM on CyclinB1/CDK1, 30 nM at CyclinA2/CDK2 and 250 nM at CyclinE1/CDK2. Moreover, the GI50 in the experiment with OVCAR3 cells and in the experiment on NCI-H1048 cells was 10 nM throughout.
